Reference: patent USRE30633E, “3-Lower alkylcarbamylsulfonamido-4-phenylaminopyridines, n-oxides, derivatives thereof and pharmaceutical compositions containing same” (A. Christiaens Societe Anonyme, priority 1974, dated 1981)

How the values were obtained:
rats = test: Pharmacological test for diuretic properties (urine volume); format: in vivo; conditions: 50 mg/kg gastric gavage, 25 ml/kg saline s.c., urine collected 4 hours, ml/kg of body weight
Protocol: 2. Pharmacological tests for diuretic properties Lots of 3 rats weighting 250-300 g have been constituted at random, each of them being submitted to the same treatment. The compound to be tested was administered by .[.gastric gavage at a dose of 50 ml/kg as a solution or a.]. .Iadd.gastric gavage at a dose of 50 mg/kg as a solution or a .[…].suspension in water containing 0.45% of methylcellulose (which is an inert mucilaginous substance). Control animals received only distilled water as a placebo. At the same time, all the animals received 25 ml/kg of physiological saline by subcutaneous injection. The rats were then placed in metabolic cages, each cage containing 3 animals receiving the same treatment. The urines have been collected during 4 hours. […] The diuresis is expressed in ml/kg of body weight.

paw of rats = test: Pharmacological test for anti-inflammatory properties (carrageenan rat paw swelling); format: in vivo; conditions: oral 1 hour before carrageenan (0.05 ml of 1%), swelling 4 hours after injection by plethysmography, dose not given
Protocol: 1. Pharmacological test for anti-inflammatory properties.
The compounds to be tested are given as freshly prepared solutions or suspensions by oral route 1 hour before injecting the paw of rats with carrageenan which is a known inflammatory agent.
The inflammatory agent (carrageenan) either in solution or suspension is then injected into the plantar tissue of the right hind paw of each rat, the left paw remaining untreated and serving as control. Each animal receives, for example, 0.05 ml of an aqueous solution containing 1% by weight of carrageenan and 0.9% of sodium chloride.
4 hours after the injection of the inflammatory agent, the importance of swelling is determined by plethysmography and is expressed as a percent of the volume of the control paw.
The anti-inflammatory effect expressed as a percentage of inhibition is obtained by comparison between rats treated with the anti-inflammatory compound and a control group of rats.

What does the source list for `O=C(Nc1ccccc1)NS(=O)(=O)c1cnccc1Nc1cccc(C(F)(F)F)c1` [JDL 368, 3-phenylcarbamylsulfonamido-4-(3'-trifluoromethyl)phenylaminopyridine]?
Diuresis (rats): 6.1 mL/kg; % inhibition of acute oedema (paw of rats): 57.0%

Which results are given for `CCNC(=S)NS(=O)(=O)c1cnccc1Nc1cccc(C(F)(F)F)c1` [JDL 420, 3-ethylthiocarbamylsulfonamido-4-(3'trifluoromethyl)-phenylaminopyridine]?
Diuresis (rats): 65.0 mL/kg; % inhibition of acute oedema (paw of rats): 52.8%

How did the Diuresis (rats) turn out when `CCNC(=O)NS(=O)(=O)c1cnccc1Nc1cccc(Cl)c1` [JDL 387] was run?
Its Diuresis is 80.9 mL/kg.

What about the “% inhibition of acute oedema” value (paw of rats) of the same compound?
The value was 76.8%.

`CC(C)NC(=S)NS(=O)(=O)c1cnccc1Nc1cccc(Cl)c1` [JDL 479, 3-isopropylthiocarbamylsulfonamido-4-(3'-chloro)-phenylaminopyridine] was tested. Which Diuresis (rats) did it give?
The Diuresis was 44.3 mL/kg.

What about the “% inhibition of acute oedema” value (paw of rats) of the same compound?
The value was 45.6%.

With `CCNC(=O)NS(=O)(=O)c1cnccc1Nc1ccccc1Cl` [JDL 403, 3-ethylcarbamylsulfonamido-4-(2'-chloro)-phenylaminopyridine] as the compound, how does the Diuresis (rats) read?
Its Diuresis is 74.9 mL/kg.

What about the “% inhibition of acute oedema” value (paw of rats) of the same compound?
Its value is 76.8%.

For `CNC(=O)NS(=O)(=O)c1cnccc1Nc1cccc(C)c1` [JDL 494, 3-methylcarbamylsulfonamido-4-(3'-methyl)-phenylaminopyridine], which Diuresis (rats) is on record?
Its Diuresis is 75.9 mL/kg.

And the “% inhibition of acute oedema” value (paw of rats)?
The value was 85.6%.

For `CC(C)NC(=O)NS(=O)(=O)c1cnccc1Nc1ccc(Cl)c(C(F)(F)F)c1` [JDL 487, 3-isopropylcarbamylsulfonamido-4-(3'-trifluoromethyl-4'-chloro)-phenylaminopyridine], which Diuresis (rats) is on record?
Its Diuresis is 10.5 mL/kg.

What about the “% inhibition of acute oedema” value (paw of rats) of the same compound?
The value was 20.8%.

For `CC(C)NC(=O)NS(=O)(=O)c1cnccc1Nc1cccc([N+](=O)[O-])c1` [JDL 505, 3-isopropylcarbamylsulfonamido-4-(3'-nitro)-phenylaminopyridine], which Diuresis (rats) is on record?
Its Diuresis is 56.3 mL/kg.

What about the “% inhibition of acute oedema” value (paw of rats) of the same compound?
The value was 68.0%.

Which Diuresis (rats) does the source give for `O=C(Nc1ccc(Cl)cc1)NS(=O)(=O)c1cnccc1Nc1cccc(C(F)(F)F)c1` [JDL 357, 3-parachlorophenylcarbamylsulfonamido-4-(3'-trifluoromethyl)-phenylaminopyridine] here?
The Diuresis was 11.2 mL/kg.

And the “% inhibition of acute oedema” value (paw of rats)?
The value was 52.0%.

Which Diuresis (rats) does the source give for `CCNC(=O)NS(=O)(=O)c1cnccc1Nc1cccc(C)c1` [JDL 463, 3-ethylcarbamylsulfonamido-4-(3'-methyl)-phenylaminopyridine] here?
The Diuresis was 76.1 mL/kg.

And the “% inhibition of acute oedema” value (paw of rats)?
Its value is 73.6%.

How did the Diuresis (rats) turn out when `CCCCNC(=O)NS(=O)(=O)c1cnccc1Nc1ccc(Cl)c(C(F)(F)F)c1` [JDL 486, 3-butylcarbamylsulfonamido-4-(3'-trifluoromethyl-4'-chloro)-phenyl aminopyridine] was run?
Its Diuresis is 3.6 mL/kg.

What about the “% inhibition of acute oedema” value (paw of rats) of the same compound?
The value was 16.8%.

`COc1cccc(Nc2ccncc2S(=O)(=O)NC(=O)NC(C)C)c1` [JDL 470, 3-isopropylcarbamylsulfonamido-4-(3'-methoxy)-phenylaminopyridine] was tested. Which Diuresis (rats) did it give?
The Diuresis was 74.9 mL/kg.

And the “% inhibition of acute oedema” value (paw of rats)?
Its value is 83.2%.

How did the Diuresis (rats) turn out when `CC(C)NC(=O)NS(=O)(=O)c1cnccc1Nc1cc(Cl)cc(Cl)c1` [JDL 474, 3-isopropylcarbamylsulfonamido-4-(3',5'-dichloro)-phenylaminopyridine] was run?
The Diuresis was 33.3 mL/kg.

What does the source list for `NS(=O)(=O)c1cnccc1NCc1ccco1` [JDL 181, 3-sulfonamido-4-methylfurylamino-pyridine]?
Diuresis (rats): 14.8 mL/kg; % inhibition of acute oedema (paw of rats): 21.6%

How did the Diuresis (rats) turn out when `CNC(=S)NS(=O)(=O)c1cnccc1Nc1cccc(Cl)c1` [JDL 477, 3-methylthiocarbamylsulfonamido-4-(3'-chloro)-phenylaminopyridine] was run?
Its Diuresis is 43.6 mL/kg.

And the “% inhibition of acute oedema” value (paw of rats)?
Its value is 61.6%.

With `CCN(CC)c1ccncc1S(=O)(=O)NC(=O)NC(C)C` [JDL 483, 3-isopropylcarbamylsulfonamido-4-diethylaminopyridine] as the compound, how does the Diuresis (rats) read?
The Diuresis was 12.4 mL/kg.

And the “% inhibition of acute oedema” value (paw of rats)?
Its value is 0%.

For `CC(C)NC(=O)NS(=O)(=O)c1cnccc1Nc1cccc(F)c1` [JDL 466, 3-isopropylcarbamylsulfonamido-4-(3'-fluoro)-phenylaminopyridine], which Diuresis (rats) is on record?
The Diuresis was 70.7 mL/kg.

And the “% inhibition of acute oedema” value (paw of rats)?
Its value is 68.0%.

Which Diuresis (rats) does the source give for `CCCCNC(=O)NS(=O)(=O)c1cnccc1Nc1cccc(C(F)(F)F)c1` [JDL 356, 3-butylcarbamylsulfonamido-4-(3'-trifluoromethyl)-phenylaminopyridine] here?
Its Diuresis is 54.7 mL/kg.

What about the “% inhibition of acute oedema” value (paw of rats) of the same compound?
Its value is 80.8%.

Which Diuresis (rats) does the source give for `Cc1cccc(Nc2ccncc2S(=O)(=O)NC(=O)NC(C)C)c1` [JDL 464, 3-isopropylcarbamylsulfonamido-4-(3'-methyl)-phenylaminopyridine] here?
Its Diuresis is 81.6 mL/kg.

What about the “% inhibition of acute oedema” value (paw of rats) of the same compound?
Its value is 76.8%.

For `CNC(=O)NS(=O)(=O)c1cnccc1Nc1cccc(OC)c1` [JDL 493, 3-methylcarbamylsulfonamido-4-(3'-methoxy)-phenylaminopyridine], which Diuresis (rats) is on record?
Its Diuresis is 50.7 mL/kg.

And the “% inhibition of acute oedema” value (paw of rats)?
Its value is 59.2%.

`CCCCNC(=O)NS(=O)(=O)c1cnccc1NCc1ccco1` [JDL 485, 3-butylcarbamylsufonamido-4-methyl-furylaminopyridine] was tested. Which Diuresis (rats) did it give?
Its Diuresis is 51.3 mL/kg.

What about the “% inhibition of acute oedema” value (paw of rats) of the same compound?
Its value is 15.2%.

What does the source list for `O=C(NC1CCCCC1)NS(=O)(=O)c1cnccc1Nc1ccccc1Cl` [JDL 428, 3-cyclohexylcarbamylsulfonamido-4-(2'-chloro)-phenylamionpyridine]?
Diuresis (rats): 15.6 mL/kg; % inhibition of acute oedema (paw of rats): 17.6%

Which results are given for `O=C(NS(=O)(=O)c1cnccc1Nc1cccc(C(F)(F)F)c1)c1ccccc1` [C 2129, 3-benzoylsulfonamido-4-(3'-trifluoromethyl)-phenylaminopyridine]?
Diuresis (rats): 30.3 mL/kg; % inhibition of acute oedema (paw of rats): 23.2%

Which Diuresis (rats) does the source give for `CNC(=O)NS(=O)(=O)c1cnccc1NCc1ccco1` [JDL 492, 3-methylcarbamylsulfonamido-4-methyl-furylaminopyridine] here?
The Diuresis was 14.9 mL/kg.

What about the “% inhibition of acute oedema” value (paw of rats) of the same compound?
Its value is 88.8%.

With `CC(C)(C)NC(=O)NS(=O)(=O)c1cnccc1Nc1ccccc1Cl` [JDL 427, 3-tertiobutylcarbamylsulfonamido-4-(2'-chloro)-phenylaminopyridine] as the compound, how does the Diuresis (rats) read?
The Diuresis was 11.4 mL/kg.

And the “% inhibition of acute oedema” value (paw of rats)?
Its value is 53.6%.

Which Diuresis (rats) does the source give for `CC(C)NC(=O)NS(=O)(=O)c1cnccc1Nc1ccc(Cl)cc1` [JDL 423, 3-isopropylcarbamylsulfonamido-4-(4'-chloro)-phenylaminopyridine] here?
The Diuresis was 68.7 mL/kg.

And the “% inhibition of acute oedema” value (paw of rats)?
Its value is 64.0%.

With `CCCCNC(=O)NS(=O)(=O)c1cnccc1NC(C)C` [JDL 491, 3-butylcarbamylsulfonamido-4-isopropylaminopyridine] as the compound, how does the Diuresis (rats) read?
Its Diuresis is 25.1 mL/kg.

And the “% inhibition of acute oedema” value (paw of rats)?
The value was 88.0%.

For `CCCNC(=O)NS(=O)(=O)c1cnccc1Nc1ccccc1Cl` [JDL 404, 3-propylcarbamylsulfonamido-4-(2'-chloro)-phenylaminopyridine], which Diuresis (rats) is on record?
Its Diuresis is 43.1 mL/kg.

And the “% inhibition of acute oedema” value (paw of rats)?
Its value is 76.8%.

How did the Diuresis (rats) turn out when `O=C(NC1CCCCC1)NS(=O)(=O)c1cnccc1Nc1cccc(Cl)c1` [JDL 389, 3-cyclohexylcarbamylsulfonamido-4-(3'-chloro)-phenylaminopyridine] was run?
The Diuresis was 73.3 mL/kg.

And the “% inhibition of acute oedema” value (paw of rats)?
The value was 64.0%.

Which results are given for `CCc1cccc(Nc2ccncc2S(=O)(=O)NC(=O)NC(C)C)c1` [JDL 512, 3-isopropylcarbamylsulfonamido-4-(3'-ethyl)-phenylaminopyridine]?
Diuresis (rats): 65.9 mL/kg; % inhibition of acute oedema (paw of rats): 78.7%

Which Diuresis (rats) does the source give for `CCNC(=O)NS(=O)(=O)c1cnccc1Nc1ccc(Cl)c(C(F)(F)F)c1` [JDL 488, 3-ethylcarbamylsulfonamido-4-(3'-trifluoromethyl-4'-chloro)-phenyl-aminopyridine] here?
The Diuresis was 16.4 mL/kg.

And the “% inhibition of acute oedema” value (paw of rats)?
Its value is 24.8%.

With `CNC(=O)NS(=O)(=O)c1cnccc1Nc1cccnc1` [JDL 506, 3-methylcarbamylsulfonamido-4-(3'-pyridylamino)-pyridine] as the compound, how does the Diuresis (rats) read?
Its Diuresis is 13.5 mL/kg.

What does the source list for `CCNC(=S)NS(=O)(=O)c1cnccc1Nc1cccc(Cl)c1` [JDL 478, 3-ethylthiocarbamylsulfonamido-4-(3'-chloro)-phenylaminopyridine]?
Diuresis (rats): 29.7 mL/kg; % inhibition of acute oedema (paw of rats): 29.6%

For `CC(C)(C)NC(=O)NS(=O)(=O)c1cnccc1Nc1cccc(C(F)(F)F)c1` [JDL 367, 3-tertbutylcarbamylsulfonamido-4-(3'-trifluoromethyl)-phenylaminopyridine], which Diuresis (rats) is on record?
Its Diuresis is 11.1 mL/kg.

What about the “% inhibition of acute oedema” value (paw of rats) of the same compound?
Its value is 80.0%.

What does the source list for `CCNC(=O)NS(=O)(=O)c1cnccc1Nc1ccc(Cl)c(Cl)c1` [JDL 475, 3-ethylcarbamylsulfonamido-4-(3',4'-dichloro)-phenylaminopyridine]?
Diuresis (rats): 34.3 mL/kg; % inhibition of acute oedema (paw of rats): 79.2%

With `CCNC(=O)NS(=O)(=O)c1cnccc1Nc1cccc(CC)c1` [JDL 511, 3-ethylcarbamylsulfonamido-4-(3'-ethyl)-phenylaminopyridine] as the compound, how does the Diuresis (rats) read?
The Diuresis was 66.4 mL/kg.

And the “% inhibition of acute oedema” value (paw of rats)?
Its value is 72.0%.
